# Experiments:
# Experiment in all cases: drug activity profiling cytotoxicity
# Type in all cases: cell-based
# Calu6 = conditions: Homo sapiens, Calu-6; Calu6 cell line, Lung (NSCLC); read-out: Aza-T-dCyd IC50
# Method in brief: (§1)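 Each line's cytotoxic response to Aza-T-dCyd was recorded within a 200-line profiling study designed to find predictive markers.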
# RPMI 6666 = conditions: Homo sapiens; RPMI 6666 cell line, Hodgkin's lymphoma; read-out: Aza-T-dCyd IC50
# Method in brief: as §1
# 769-P = conditions: Homo sapiens; 769-P cell line, Kidney; read-out: Aza-T-dCyd IC50
# Method in brief: as §1
# MEG01 = conditions: Homo sapiens, MEG-01; MEG01 cell line, CML; read-out: Aza-T-dCyd IC50
# Method in brief: as §1
# A-253 = conditions: Homo sapiens, A253; A-253 cell line, Head and Neck; read-out: Aza-T-dCyd IC50
# Method in brief: as §1
# SW403 = conditions: Homo sapiens, SW-403; SW403 cell line, Colon; read-out: Aza-T-dCyd IC50
# Method in brief: as §1
# SW900 = conditions: Homo sapiens; SW900 cell line, Lung (NSCLC); read-out: Aza-T-dCyd IC50
# Method in brief: as §1
# A431 = conditions: Homo sapiens, A-431; A431 cell line, Skin (Head and Neck); read-out: Aza-T-dCyd IC50
# Method in brief: as §1
# HepG2 = conditions: Homo sapiens; HepG2 cell line, Liver; read-out: Aza-T-dCyd IC50
# Method in brief: as §1
# MeWo = conditions: Homo sapiens; MeWo cell line, Skin (Melanoma); read-out: Aza-T-dCyd IC50
# Method in brief: as §1
# HL-60 = conditions: Homo sapiens; HL-60 cell line, AML; read-out: Aza-T-dCyd IC50
# Method in brief: as §1
# YAPC = conditions: Homo sapiens; YAPC cell line, Pancreas; read-out: Aza-T-dCyd IC50
# Method in brief: as §1
# COR-L23 = conditions: Homo sapiens; COR-L23 cell line, Lung (NSCLC); read-out: Aza-T-dCyd IC50
# Method in brief: as §1
# OVCAR3 = conditions: Homo sapiens, OVCAR-3; OVCAR3 cell line, Female GU (Ovary); read-out: Aza-T-dCyd IC50
# Method in brief: as §1
# L-428 = conditions: Homo sapiens; L-428 cell line, Hodgkin's lymphoma; read-out: Aza-T-dCyd IC50
# Method in brief: as §1
# 786-O = conditions: Homo sapiens, 786-0; 786-O cell line, Kidney; read-out: Aza-T-dCyd IC50
# Method in brief: as §1
# TCCSUP = conditions: Homo sapiens, TCC-SUP; TCCSUP cell line, Bladder; read-out: Aza-T-dCyd IC50
# Method in brief: as §1
# MG-63 = conditions: Homo sapiens; MG-63 cell line, Bone (Osteosarcoma); read-out: Aza-T-dCyd IC50
# Method in brief: as §1
# A375 = conditions: Homo sapiens, A-375; A375 cell line, Skin (Melanoma); read-out: Aza-T-dCyd IC50
# Method in brief: as §1
# CAMA-1 = conditions: Homo sapiens; CAMA-1 cell line, Breast; read-out: Aza-T-dCyd IC50
# Method in brief: as §1
# Colo 320DM = conditions: Homo sapiens; Colo 320DM cell line, Colon; read-out: Aza-T-dCyd IC50
# Method in brief: as §1
# H9 = conditions: Homo sapiens; H9 cell line, T-cell Lymphoma; read-out: Aza-T-dCyd IC50
# Method in brief: as §1
# NCI-H69 = conditions: Homo sapiens; NCI-H69 cell line, Lung (SCLC); read-out: Aza-T-dCyd IC50
# Method in brief: as §1
# HeLa = conditions: Homo sapiens; HeLa cell line, Female GU (Cervix); read-out: Aza-T-dCyd IC50
# Method in brief: as §1
# Detroit 562 = conditions: Homo sapiens; Detroit 562 cell line, Head and Neck; read-out: Aza-T-dCyd IC50
# Method in brief: as §1
# Hs 852.T = Hs 852.T cell line, Skin (Melanoma); read-out: Aza-T-dCyd IC50
# Method in brief: as §1
# OE21 = OE21 cell line, Head and Neck; read-out: Aza-T-dCyd IC50
# Method in brief: as §1
# Hs 936.T(C1) = Hs 936.T(C1) cell line, Skin (Melanoma); read-out: Aza-T-dCyd IC50
# Method in brief: as §1
# HT = conditions: Homo sapiens; HT cell line, B-cell lymphoma; read-out: Aza-T-dCyd IC50
# Method in brief: as §1
# J82 = conditions: Homo sapiens; J82 cell line, Bladder; read-out: Aza-T-dCyd IC50
# Method in brief: as §1
compound,measurement,setting,value
"Nc1ncn([C@H]2CC(O)[C@@H](CO)S2)c(=O)n1 (stereo partly drawn) [Aza-T-dCyd, 4′-thio-5-aza-2′-deoxycytidine]",IC50,Calu6,0.289 µM
same,IC50,RPMI 6666,1.05 µM
same,IC50,769-P,0.0657 µM
same,IC50,MEG01,1.07 µM
same,IC50,A-253,0.601 µM
same,IC50,SW403,0.619 µM
same,IC50,SW900,1.98 µM
same,IC50,A431,0.256 µM
same,IC50,HepG2,0.892 µM
same,IC50,MeWo,1.04 µM
same,IC50,HL-60,0.514 µM
same,IC50,YAPC,1.05 µM
same,IC50,COR-L23,0.0944 µM
same,IC50,OVCAR3,3.44 µM
same,IC50,L-428,0.365 µM
same,IC50,786-O,0.249 µM
same,IC50,TCCSUP,1.18 µM
same,IC50,MG-63,0.99 µM
same,IC50,A375,0.0667 µM
same,IC50,CAMA-1,> 10 µM
same,IC50,Colo 320DM,0.0923 µM
same,IC50,H9,0.468 µM
same,IC50,NCI-H69,> 10 µM
same,IC50,HeLa,1.81 µM
same,IC50,Detroit 562,0.0811 µM
same,IC50,Hs 852.T,> 10 µM
same,IC50,OE21,0.152 µM
same,IC50,Hs 936.T(C1),0.398 µM
same,IC50,HT,1.03 µM
same,IC50,J82,1.98 µM
